Data from article PMC8230073, “The Role of Anthocyanins, Deoxyanthocyanins and Pyranoanthocyanins on the Modulation of Tyrosinase Activity: An In Vitro and In Silico Approach” (International Journal of Molecular Sciences, 2021).
Where two headings read alike, the source gives them in different places. Blank lines part the entries; values can stand above or below the compound they belong to.

What was measured:
[1] = molecular target: T1, mushroom tyrosinase (Agaricus bisporus, UniProt C7FF04); experiment: Mushroom tyrosinase inhibition assay (L-DOPA oxidation to dopachrome); format: biochemical
T1 construct: purchased Sigma Aldrich T3824-250 KU
T1 sequence (C7FF04 1-392): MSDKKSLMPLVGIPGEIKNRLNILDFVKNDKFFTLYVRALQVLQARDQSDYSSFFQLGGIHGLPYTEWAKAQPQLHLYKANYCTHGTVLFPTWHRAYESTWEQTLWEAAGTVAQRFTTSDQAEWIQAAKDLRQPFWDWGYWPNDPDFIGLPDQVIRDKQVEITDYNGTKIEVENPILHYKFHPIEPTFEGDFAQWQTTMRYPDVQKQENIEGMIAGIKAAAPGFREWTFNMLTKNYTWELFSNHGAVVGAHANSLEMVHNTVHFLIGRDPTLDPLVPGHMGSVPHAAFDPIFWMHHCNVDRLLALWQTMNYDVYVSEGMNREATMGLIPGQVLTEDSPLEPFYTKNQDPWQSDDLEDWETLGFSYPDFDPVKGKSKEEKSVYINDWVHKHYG
Procedure: Both were dissolved in 20 mM phosphate buffer solution, pH 6.8. First, 20 µL from a freshly prepared stock solution of mushroom tyrosinase (270 U/mL) and 75 µL of test compounds stock solutions (20 mM PBS, pH 6.8) were mixed and pre-incubated at 37 °C for 15 min. Then, 30 µL of 6 mM L-DOPA was added to the reaction mixture, followed by an incubation of 20 min at 37 °C. During this reaction, L-DOPA is converted to dopachrome (a precursor of melanin), visually detected by the change of color from colorless to orange/brown, resulting in an absorbance increase, recorded spectrophotometrically at 475 nm on a Flex Station 3 Multi-Mode Microplate Reader (Molecular Devices). The inhibition rate was calculated as follows:(1) % Tyrosinase inhibition=(1−A−B/C−D)×100 where A and B represent the final and initial optical densities of the reaction in the presence of the tested compounds, while C and D represent the final and initial optical densities of the reaction in their absence, respectively. […] Experiments were carried out in triplicate and repeated at least 3 times.

[2] = molecular target: T1, mushroom tyrosinase; experiment: Kinetic analysis of tyrosinase inhibition; format: biochemical
Description: GraphPad Prism 8.2.1 was used to fit the experimental data to these four models, all of them compared with each other. Akaike’s Information Criteria (AICc) approach was used to compare the fit of competitive, uncompetitive, and noncompetitive models, while extra sum-of-squares F test was used to compare the mixed model with the remaining three models, as they are considered to be special cases of the mixed model general equation.
Additionally, the mixed model fitting includes an extra parameter, the alpha (α) value, which represents a useful quantitative indicator of the mechanism of inhibition.
Initial velocity of the enzymatic reaction, V0, was determined from the slope of the curve at the initial phase of the reaction, in the presence of increasing concentrations of each compound (25–100 μM) and L-dopa (0.10–1.0 mM) and then plotted as a function of the corresponding substrate concentration, [S]. GraphPad Prism 8.2.1 program was used to fit the obtained data into the Michaelis–Menten model and to determine the kinetic parameters Vmax and KM (maximal reaction velocity and Michaelis–Menten constant, respectively).

[3] = pH 7.4, cited from earlier work; for fraction in quinoidal base form: 7-A^− and 8-A, ref [20],[22]
[4] = 50 µM compound, substrate L-DOPA, pH 6.8, 37 °C, mean ± SEM, read-out: % mTYR Inhibition at 50 µM

SMILES: Oc1cc(O)c2ccc(-c3ccc(O)c(O)c3)[o+]c2c1 [Compound 1, luteolinidin]
IC50 [1]: 39.2 ± 2.71 µM | inhibition at 50 µM ([1]; pH 6.8, read-out: % mTYR Inhibition at 50 µM): 58.5 ± 2.08% | Ki [2]: 15.1 ± 1.18 µM | Vmax ([2]; L-DOPA, inhibitor 25 μM): 45.8 µM/min | Vmax ([2]; L-DOPA, inhibitor 50 μM): 45.8 µM/min | Vmax ([2]; L-DOPA, inhibitor 75 μM): 45.8 µM/min | Vmax ([2]; L-DOPA, inhibitor 100 μM): 45.8 µM/min | α ([2]; alpha value from fitting of mixed model equation): 21.00 | Inhibition Type ([2]; diphenolase activity, L-DOPA, model comparison in GraphPad Prism): Competitive

inhibition at 50 µM [1, 4]: 22.1 ± 0.962% | inhibition at 200 µM ([1]; 200 μM compound, L-DOPA oxidation (Figure 3), read-out: inhibition rate at 200 μM): ~40%
SMILES: O=C(O)c1cc2c(O[C@@H]3O[C@H](CO)[C@@H](O)[C@H](O)[C@H]3O)c(-c3ccc(O)c(O)c3)oc3cc(=O)cc(o1)c32 [Compound 5, carboxypyranocyanidin-3-O-glucoside]
fraction under the form A^2− ([3]; ref [20],[21]): ~100%

inhibition at 50 µM [1, 4]: 16.2 ± 1.14%
SMILES: Cc1cc2c(O[C@@H]3O[C@H](CO)[C@@H](O)[C@H](O)[C@H]3O)c(-c3ccc(O)c(O)c3)oc3cc(=O)cc(o1)c32 [Compound 7, methylpyranocyanidin-3-O-glucoside]
fraction in quinoidal base form [3]: 80%

inhibition at 50 µM [1, 4]: 9.74 ± 3.36%
SMILES: COc1cc(-c2oc3cc(=O)cc4oc(C)cc(c2O[C@@H]2O[C@H](CO)[C@@H](O)[C@H](O)[C@H]2O)c43)cc(OC)c1O [Compound 8, methylpyranomalvidin-3-O-glucoside]
fraction in quinoidal base form [3]: 80%
